A short description of test [1]: Inhibition of human erythrocyte 20s proteasome caspase-like activity using Z-LLE-MCA as substrate pretreated for 10 mins followed by substrate addition measured after 3 hrs by spectrophotometric method.
Test [2] can be described thus: Inhibition of human erythrocyte 20s proteasome trypsin-like activity using Boc-LRR-MCA as substrate pretreated for 10 mins followed by substrate addition measured after 3 hrs by spectrophotometric method.

In the case of `C=C1CC[C@H]2C(C)(C)[C@H](O)CC[C@]2(C)[C@H]1CC1=C(O)C(=O)C2=C(C1=O)[C@@]13C=C[C@@H](O)[C@H](O)[C@]1(C2)C(=O)c1c(O)cc(C)cc1C3=O`, the figures for the IC50 in test [1] and in test [2] were 17.3 µM and more than 50 µM, respectively.

Values taken from BindingDB's records for doi:10.1021/acs.jnatprod.6b01177 (Hirosaki University, 2017).
